Patent US11389427B2, “Compositions and methods of treating cardiac hypertrophy and heart failure” (CASE WESTERN RESERVE UNIVERSITY, priority 2017, dated 2022)

How the values were obtained:
[1] = test system: neonatal rat ventricular myocytes (NRVMs); test: Phenylephrine-induced (PE-induced) cardiomyocyte hypertrophy in NRVMs; type: cell-based; design: PE-induced cellular hypertrophy (cell size) / PE-induced expression of cellular stress markers (qPCR of Nppa and Nppb): unit of the concentration uncertain
Protocol: (§1) SR9009 was synthesized and purified in the laboratory of Thomas Burris (Department of Pharmacology and Physiology, St. Louis University, St. Louis, Mo., USA). For in vitro experiments, SR9009 was dissolved in DMSO and administered at […]; GSK4112 (EMD Millipore) was dissolved in DMSO and administered at […] using an equal volume of DMSO as control. For in vivo experiments, SR9009 was dissolved in 5% DMSO/10% Cremaphor EL (Sigma-Aldrich, C5135)/85% PBS in a working solution at 10 mg/ml. Micewere injected at a dose of 100 mg/kg/day given i.p. once daily at zeitgeber time 8 (ZT8). The diluent without SR9009 of the same volume was used as control.
NRVMs and CFs were isolated from the hearts of 2-day-old Sprague-Dawley rat pups (Charles River Laboratories). The cells were differentially preplated for 1.5 hr. The nonattached cells were collected as NRVM and replated with 48 hr exposure to BrdU to suppress nonmyocytes. The attached cells were passaged 2-3 times to obtain CFs. NRVMs were initially plated in growth medium (DMEM supplemented with 10% FBS, 100 U/ml penicillin-streptomycin, and 2 mM L-glutamine) for 48 hr and maintained in serum-free media thereafter (DMEM supplemented with 1% insulin-transferrin-selenium liquid media supplement [Sigma-Aldrich, 13146], 100 U/ml penicillin-streptomycin). For hypertrophic stimulation, NRVM were incubated with SR9009 or GSK4112 versus DMSO for 24 hr, followed by stimulation with PE (100 μM) for the indicated time. […]
NRVM were plated on glass coverslips in 6-well dishes at a density of 1×10^5 cells/ml. […] Quantitation of cardiomyocyte cell surface area was performed on anti-actinin-stained cardiomyocytes using fluorescent microscopy and ImagePro software. […]
(§2) For tissue RNA, a 10-20 mg piece of mouse heart at apex was preserved in RNA Later stabilization reagent (Qiagen) followed by mechanical disruption/homogenization in Trizol (Life Technologies) on a TissueLyser (Qiagen) using stainless steel beads (Qiagen). […] Relative expression was calculated using the ΔΔCt-method with normalization to Ppib (Cyclophilin-B). […]

[2] = mouse, in vivo
Protocol: Conscious tail-vein systolic blood pressure was measured using the BP2000 Blood Pressure Analysis System (Visitech Systems Inc.) as recommended by the manufacturer. To allow mice to adapt to the apparatus, we performed daily blood pressure measurements for 1 week prior to beginning experiments.
SR9009 is a drug given systemically and may potentially affect other systems, such as the vascular tone, although pressure overload itself is considered a relatively specific stress directly on the heart. To exclude the possibility that the improved cardiac function and reduced hypertrophy in vivo is associated with improvement in hemodynamics, we measured blood pressure using tail cuff and found there is no difference in mice receiving 4 weeks of Veh (mean arterial pressure [MAP]=106 mmHg) or SR9009 (MAP=115 mmHg, P=0.24).

[3] = test system: cardiac fibroblasts (CFs); test: TGβ1-induced inflammatory response of cultured cardiac fibroblasts (CFs); type: cell-based, rat; settings: cultured CFs pretreated with Veh or SR9009
Protocol: NRVMs and CFs were isolated from the hearts of 2-day-old Sprague-Dawley rat pups (Charles River Laboratories). The cells were differentially preplated for 1.5 hr. The nonattached cells were collected as NRVM and replated with 48 hr exposure to BrdU to suppress nonmyocytes. The attached cells were passaged 2-3 times to obtain CFs. NRVMs were initially plated in growth medium (DMEM supplemented with 10% FBS, 100 U/ml penicillin-streptomycin, and 2 mM L-glutamine) for 48 hr and maintained in serum-free media thereafter (DMEM supplemented with 1% insulin-transferrin-selenium liquid media supplement [Sigma-Aldrich, 13146], 100 U/ml penicillin-streptomycin). For hypertrophic stimulation, NRVM were incubated with SR9009 or GSK4112 versus DMSO for 24 hr, followed by stimulation with PE (100 μM) for the indicated time. CFs were cultured in DMEM supplemented with 10% FBS, 100 U/ml penicillin-streptomycin, and 2 mM L-glutamine and stimulated with TGβ1 (eBioscience).

[4] = test system: human induced pluripotent stem cell-differentiated cardiomyocytes (iPS-CM); test: Endothelin-1-induced hypertrophic response in human iPS-differentiated cardiomyocytes; type: cell-based; settings: SR9009 pretreatment, ET-1 (10 nM)
Protocol: We purchased human induced pluripotent stem cell-differentiated cardiomyocytes from Cellular Dynamics (iCell). We followed manufacturer's protocol and measured NPPB expression 24 hr after ET-1 (10 nM, Sigma-Aldrich) induction.
as §2, with “(Qiagen). RNA was purified from the aqueous phase using the miRNAeasy kit (Qiagen) following manufacturer's instructions. For cellular samples, total RNA from NRVM was isolated using the High Pure RNA isolation kit (Roche Diagnostics) with on-column DNAase treatment according to manufacturer's directions.” for “(Qiagen).”
We induced cellular hypertrophic response in human induced pluripotent stem cell-differentiated cardiomyocytes with endothelin-1 (ET-1) and monitored NPPB (BNP) expression with SR9009 or Veh pretreatment.

[5] = test system: C57BL/6J mice, TAC pressure overload; test: Pressure overload model, transaortic constriction (TAC, 27 gauge), 6-week followup; type: in vivo; settings: for Corrected left ventricle mass (LVm): echocardiogram; for Ejection fraction (EF): SR9009 i.p. daily from 1 day after surgery
Protocol: as §1, with “Micewere injected at a dose of 100 mg/kg/day given i.p. once daily at zeitgeber time 8 (ZT8).” left out
(§3) All mice were C57BL/6J littermate males aged 9 weeks at the start of the experiment. Mice were anesthetized with ketamine/xylazine, mechanically ventilated (Harvard apparatus), and subjected to thoracotomy. The aortic arch was constricted between the left and right carotid arteries using a 7.0 silk suture and a 27- or 28-gauge needle as previously described (20). Chemicals were obtained from Sigma-Aldrich.
(§4) For transthoracic echocardiography, mice were anesthetized with 1% inhalational isofluorane and imaged using the Vevo 770 High Resolution Imaging System (Visual Sonics Inc.) and the RMV-707B 30 MHz probe. Measurements were obtained from M-mode sampling, and integrated EKVimages were taken in the LV short axis at the mid-papillary level.
Short-axis heart sections from the midventricle were fixed in PBS/4% paraformaldehyde and embedded in paraffin. Fibrosis was visualized using Gomori's Trichrome staining kit (Sigma-Aldrich) with quantification of fibrotic area using ImagePro software. TUNEL staining was performed using the CardioTACS In Situ Apoptosis Detection kit (R&D Systems) according to manufacturer's instructions. Cryopreserved sections were used for myocardial capillary staining, which was performed in frozen LV sections using anti-PECAM-1 antibodies (1:200, BD Pharmingen, MEC13.3). The cardiomyocyte cross-sectional area was determined by staining with WGA Alexa 594 (Life Technologies) and analyzed using ImagePro software.
Given the strong effect of SR9009 in blocking the cellular remodeling in response to neurohormonal stress, we next tested the role of REV-ERBα activation in vivo using the classical pressure overload model. We started daily i.p. injection of SR9009 or Veh 1 day after transaortic constriction (TAC, 27 gauge) surgery and monitored cardiac hypertrophy and function by echocardiogram for 6 weeks. […] These findings were later confirmed by autopsy performed 6 weeks after TAC by heart weight and muscle fiber size analyses using wheat germ agglutinin staining on cryopreserved sections (FIGS. 3, B-E).

[6] = test system: mouse heart mitochondria; test: Mitochondria number, morphology and respiration in mouse hearts after TAC; type: in vivo; settings: 10 weeks after TAC, vs Veh
Protocol: The assay was performed using Seahorse (Agilent) and following the manufacturer's published protocol. Isolated mitochondria (0.5 μg; measured by BCA assay) were loaded per assay.
Total DNA was extracted from the hearts or NRVMs using the QIAamp DNA Mini Kit (Qiagen, 51304). Mitochondrial DNA content was assessed by qPCR using primers specific for multiple mitochondrial-encoded genes (int-Cox1, mt-Nd2, int-Nd1, and mt-Nd5) and normalized to nuclear DNA content (a specific locus on mouse chromosome 6) using the ΔΔCt method.
Small pieces of tissue from the LV free wall were fixed by sequential immersion in triple aldehyde-DMSO, ferrocyanide-reduced osmium tetroxide, and acidified uranyl acetate; dehydrated in ascending concentrations of ethanol; passed through propylene oxide; and embedded in Poly/Bed resin (Polysciences Inc., 21844-1). Thin sections were sequentially stained with acidified uranyl acetate, followed by a modification of Sato's triple lead stain, and examined with a JEOL 1200EX electron microscope.

[7] = test system: C57BL/6J mice, 28-gauge TAC heart failure model; test: Heart failure model, 28-gauge TAC with cross-over, 11-week followup; type: in vivo, mouse
Protocol: as §1, §3
as §4, with “level. […]” for “level.”

Question: Which “PE-induced expression of cellular stress markers (qPCR of Nppa and Nppb)” value ([1]; NRVMs pretreated 24 hours, then PE 48 hours, SR9009 at 5 (unit uncertain), GSK4112 at 10 (unit uncertain)) does the source give for CCOC(=O)N1CCC(CN(Cc2ccc(Cl)cc2)Cc2ccc([N+](=O)[O-])s2)C1 (stereo not shown) [SR9009] here?
Answer: effectively blocked

Question: And the “PE-induced cellular hypertrophy (cell size)” value ([1]; NRVMs pretreated 24 hours, then PE (100 μM) 48 hours, SR9009 at 5 (unit uncertain))?
Answer: effectively blocked

Question: What about the “PE repression of Pdk4 expression (RNA-Seq)” value ([1]; NRVMs, SR9009 given 24 hr prior to PE) of the same molecule?
Answer: ameliorated

Question: What about the “Mean arterial pressure (MAP)” value [2] of the same molecule?
Answer: 115 mmHg

Question: What about the TGβ1-induced inflammatory response [3] of the same molecule?
Answer: no difference

Question: What about the “ET-1-induced NPPB (BNP) expression” value [4] of the same molecule?
Answer: protective effect

Question: And the “Toxicity of the SR9009 dose” value ([5]; 10 mg/kg/day, daily i.p., mice)?
Answer: no apparent toxicity

Question: And the “Corrected left ventricle mass (LVm)” value ([5]; 4 weeks after 27-gauge TAC)?
Answer: 111.4 mg

Question: And the “Ejection fraction (EF)” value ([5]; 4 weeks after 27-gauge TAC)?
Answer: 61.4%

Question: And the “Corrected left ventricle mass (LVm)” value ([5]; 6 weeks after 27-gauge TAC)?
Answer: 114.8 mg

Question: And the “Ejection fraction (EF)” value ([5]; 6 weeks after 27-gauge TAC)?
Answer: 60.6%

Question: And the “Cell death, TUNEL positives per cross-section of the whole heart” value ([5]; 6 weeks after TAC)?
Answer: 13.4 positives per cross-section of the whole heart

Question: What about the Capillary density ([5]; after 6 weeks of TAC, Veh- vs SR9009-treated) of the same molecule?
Answer: no difference

Question: And the Intramuscular fibrosis area ([5]; end of 6 weeks after TAC, Gomori Trichrome)?
Answer: 1.1%

Question: What about the “Mitochondria morphology by electron microscopy” value [6] of the same molecule?
Answer: no difference

Question: What about the “Mitochondria number estimated by mtDNA to nuclear DNA ratio” value [6] of the same molecule?
Answer: no difference

Question: And the “Oxidative phosphorylation (OXPHOS) measured by oxygen consumption rate” value [6]?
Answer: no difference

Question: What about the “Ejection fraction (EF)” value ([7]; 6 weeks after 28-gauge TAC, Group II, SR9009 from 2 weeks after TAC (average EF 44% at start)) of the same molecule?
Answer: 43.9%±5%

Question: And the “Ejection fraction (EF)” value ([7]; after cross-over, additional 5 weeks, Group I received SR9009 (EF 29.1% at cross-over))?
Answer: 29.8%±3.7%
